Values of other authors in patent US11439614B2, “Fish egg extracts, omega-3 lipid-based compositions and uses thereof” (BIOFLASH INC., priority 2017, dated 2022).

System: ADHD symptoms

Which Hyperactivity (200 mg daily for 6 months, 75 children with ADHD, vs conventional treatment (Starobat-Hermelin et al, 1997)) does the source give for `[Mg+2]` [magnesium] here?
Its Hyperactivity is “decreased Hyperactivity”.

Which “Help for children with ADHD” value (150 mg for 12 weeks alone or 55 mg for 6 weeks with a conventional drug, 440 children) does the source give for `O=S(=O)([O-])[O-].[Zn+2]` [zinc sulfate] here?
The value was “could significantly help children with this condition”.
